Experimental findings from US20260297080A1, “BICYCLIC COMPOUNDS AS CDK INHIBITORS” (BeOne Medicines I GmbH, priority 2022, published 2026) are described below.

Each structure is given as a SMILES string.

The target of one experiment is CDK1/Cyclin B1 (Homo sapiens, UniProt P06493). In words: CDK1/Cyclin B1 Biochemical Assay (TR-FRET), 0.015 mM ATP. Conditions: 0.15 μM Rb (Ser780)-biotin substrate, pH7.0, 60 min preincubation, 120 min reaction, room temperature. The method, boiled down: (§1)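 Inhibitor concentrations up to 10 μM were preincubated with each cyclin–kinase complex for 60 minutes before ATP and biotinylated Rb (Ser780) substrate (0.15 μM) were added. After 120 minutes at room temperature, phosphorylation was quantified by HTRF and IC50 values were fitted with a four-parameter logistic equation.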

A further experiment addresses CDK2/Cyclin E1 (Homo sapiens, UniProt P24941). Put plainly: CDK2/Cyclin E1 Biochemical Assay (TR-FRET), 0.060 mM ATP. The conditions noted are these: 0.15 μM Rb (Ser780)-biotin substrate, pH7.0, 60 min preincubation, 120 min reaction, room temperature. The method, boiled down: as §1

Chain of CDK1/Cyclin B1 (P06493 whole entry): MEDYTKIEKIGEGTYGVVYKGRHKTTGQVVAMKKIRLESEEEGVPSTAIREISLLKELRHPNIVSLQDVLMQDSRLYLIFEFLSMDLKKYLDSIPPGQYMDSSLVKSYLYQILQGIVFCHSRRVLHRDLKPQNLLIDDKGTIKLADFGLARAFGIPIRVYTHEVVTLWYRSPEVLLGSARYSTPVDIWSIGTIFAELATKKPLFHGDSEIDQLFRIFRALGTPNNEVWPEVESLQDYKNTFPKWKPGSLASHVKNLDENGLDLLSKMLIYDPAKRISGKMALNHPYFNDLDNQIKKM
Chain of CDK1/Cyclin B1 (P14635 whole entry partner): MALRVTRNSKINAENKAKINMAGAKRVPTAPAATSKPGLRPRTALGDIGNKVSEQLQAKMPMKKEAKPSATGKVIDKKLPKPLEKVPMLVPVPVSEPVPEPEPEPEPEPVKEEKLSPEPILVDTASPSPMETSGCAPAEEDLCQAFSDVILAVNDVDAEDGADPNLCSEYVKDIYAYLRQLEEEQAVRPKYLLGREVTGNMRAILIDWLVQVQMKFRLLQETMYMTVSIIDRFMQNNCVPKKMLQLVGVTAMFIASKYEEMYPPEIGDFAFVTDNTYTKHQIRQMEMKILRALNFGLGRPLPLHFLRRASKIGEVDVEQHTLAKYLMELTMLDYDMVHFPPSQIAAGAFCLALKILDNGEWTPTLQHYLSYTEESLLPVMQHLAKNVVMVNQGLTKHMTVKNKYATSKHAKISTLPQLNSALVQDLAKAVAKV

`C[C@]1(O)CC[C@@H](NC(=O)O[C@H]2CC[C@@H](c3cc(Nc4ccc5c(c4F)CNS5(=O)=O)n[nH]3)C2)CC1` (relative stereo) [Example 144, cis-3-(3-((4-fluoro-1,1-dioxido-2,3-dihydrobenzo[d]isothiazol-5-yl)amino)-1H-pyrazol-5-yl)cyclopentyl((1s,4s)-4-hydroxy-4-methylcyclohexyl)carbamate]: the concentration for half-maximal inhibition (IC50) was found to be 302 nM at CDK1/Cyclin B1 and 3.9 nM against CDK2/Cyclin E1.

Consider `C[C@H]1[C@H](O)CN1C(=O)O[C@H]1CC[C@@H](c2cc(Nc3ccc4c(c3F)CNS4(=O)=O)n[nH]2)C1` (relative stereo) [Example 145, cis-3-(3-((4-fluoro-1,1-dioxido-2,3-dihydrobenzo[d]isothiazol-5-yl)amino)-1H-pyrazol-5-yl)cyclopentyl(2S,3R)-3-hydroxy-2-methylazetidine-1-carboxylate], for which the IC50 against CDK1/Cyclin B1 was 267 nM; against CDK2/Cyclin E1 it was 14 nM.

Consider `CC(C)(O)CNC(=O)O[C@H]1CC[C@@H](c2cc(Nc3ccc4c(c3F)CNS4(=O)=O)n[nH]2)C1` (relative stereo) [Example 146, cis-3-(3-((4-fluoro-1,1-dioxido-2,3-dihydrobenzo[d]isothiazol-5-yl)amino)-1H-pyrazol-5-yl)cyclopentyl(2-hydroxy-2-methylpropyl)carbamate], for which the IC50 against CDK1/Cyclin B1 was 323 nM; on CDK2/Cyclin E1, 8.1 nM.

Consider `CC(NC(=O)O[C@H]1CC[C@@H](c2cc(Nc3ccc4c(c3F)CNS4(=O)=O)n[nH]2)C1)C1COC1` (relative stereo) [Example 147, cis-3-(3-((4-fluoro-1,1-dioxido-2,3-dihydrobenzo[d]isothiazol-5-yl)amino)-1H-pyrazol-5-yl)cyclopentyl(1-(oxetan-3-yl)ethyl)carbamate], for which the values for the IC50 against CDK1/Cyclin B1 and against CDK2/Cyclin E1 were 606 nM and 9.1 nM, respectively.

Consider `O=C(NCC1COC1)O[C@H]1CC[C@@H](c2cc(Nc3ccc4c(c3F)CNS4(=O)=O)n[nH]2)C1` (relative stereo) [Example 148, cis-3-(3-((4-fluoro-1,1-dioxido-2,3-dihydrobenzo[d]isothiazol-5-yl)amino)-1H-pyrazol-5-yl)cyclopentyl(oxetan-3-ylmethyl)carbamate], for which the figures for the IC50 against CDK1/Cyclin B1 and against CDK2/Cyclin E1 were 523 nM and 44 nM, respectively.

For `O=C(NC1COC1)O[C@H]1CC[C@@H](c2cc(Nc3ccc4c(c3F)CNS4(=O)=O)n[nH]2)C1` (relative stereo) [Example 149, cis-3-(3-((4-fluoro-1,1-dioxido-2,3-dihydrobenzo[d]isothiazol-5-yl)amino)-1H-pyrazol-5-yl)cyclopentyl oxetan-3-ylcarbamate], the 50% inhibitory concentration (IC50) against CDK1/Cyclin B1 turned out to be 666 nM; against CDK2/Cyclin E1, 42 nM.

Turning to `O=C(NC12CC(C1)C2)O[C@H]1CC[C@@H](c2cc(Nc3ccc4c(c3F)CNS4(=O)=O)n[nH]2)C1` (relative stereo) [Example 150, cis-3-(3-((4-fluoro-1,1-dioxido-2,3-dihydrobenzo[d]isothiazol-5-yl)amino)-1H-pyrazol-5-yl)cyclopentyl bicyclo[1.1.1]pentan-1-ylcarbamate], the IC50 was 24 nM on CDK1/Cyclin B1 and 0.3 nM at CDK2/Cyclin E1.

Turning to `O=C(NC1CC2(CCC2)C1)O[C@H]1CC[C@@H](c2cc(Nc3ccc4c(c3F)CNS4(=O)=O)n[nH]2)C1` (relative stereo) [Example 151, cis-3-(3-((4-fluoro-1,1-dioxido-2,3-dihydrobenzo[d]isothiazol-5-yl)amino)-1H-pyrazol-5-yl)cyclopentyl spiro[3.3]heptan-2-ylcarbamate], the IC50 is 668 nM against CDK1/Cyclin B1 and 80 nM against CDK2/Cyclin E1.

Consider `O=C(NC1CCC12CC2)O[C@H]1CC[C@@H](c2cc(Nc3ccc4c(c3F)CNS4(=O)=O)n[nH]2)C1` (relative stereo) [Example 152, cis-3-(3-((4-fluoro-1,1-dioxido-2,3-dihydrobenzo[d]isothiazol-5-yl)amino)-1H-pyrazol-5-yl)cyclopentyl spiro[2.3]hexan-4-ylcarbamate], for which the IC50 came to 324 nM against CDK1/Cyclin B1 and 3.6 nM against CDK2/Cyclin E1.

Take `CNC(=O)O[C@H]1CC[C@@H](c2cc(Nc3ccc4c(c3F)CNS4(=O)=O)n[nH]2)C1` (relative stereo) [Example 153, cis-3-(3-((4-fluoro-1,1-dioxido-2,3-dihydrobenzo[d]isothiazol-5-yl)amino)-1H-pyrazol-5-yl)cyclopentyl methylcarbamate]: the IC50 on CDK1/Cyclin B1 stood at 1120 nM; against CDK2/Cyclin E1 it was 91 nM.

As for `CC1(C)CCN1C(=O)O[C@H]1CC[C@@H](c2cc(Nc3ccc4c(c3F)CNS4(=O)=O)n[nH]2)C1` (relative stereo) [Example 155, cis-3-(3-((4-fluoro-1,1-dioxido-2,3-dihydrobenzo[d]isothiazol-5-yl)amino)-1H-pyrazol-5-yl)cyclopentyl 2,2-dimethylazetidine-1-carboxylate], the IC50 amounted to 13 nM on CDK1/Cyclin B1 and 1.3 nM on CDK2/Cyclin E1.

With `CC(NC(=O)O[C@H]1CC[C@@H](c2cc(Nc3ccc4c(c3F)CNS4(=O)=O)n[nH]2)C1)C1CC1` (relative stereo) [Example 156, cis-3-(3-((4-fluoro-1,1-dioxido-2,3-dihydrobenzo[d]isothiazol-5-yl)amino)-1H-pyrazol-5-yl)cyclopentyl(1-cyclopropylethyl)carbamate], the figures for the IC50 against CDK1/Cyclin B1 and on CDK2/Cyclin E1 were 76 nM and 1.7 nM, respectively.

Turning to `O=C(NC1CCC1)O[C@H]1CC[C@@H](c2cc(Nc3ccc4c(c3F)CNS4(=O)=O)n[nH]2)C1` (relative stereo) [Example 157, cis-3-(3-((4-fluoro-1,1-dioxido-2,3-dihydrobenzo[d]isothiazol-5-yl)amino)-1H-pyrazol-5-yl)cyclopentyl cyclobutylcarbamate], the half-maximal inhibitory concentration (IC50) came to 240 nM against CDK1/Cyclin B1 and 15 nM against CDK2/Cyclin E1.

As for `CC(C)(C)NC(=O)O[C@H]1CC[C@@H](c2cc(Nc3ccc4c(c3F)CNS4(=O)=O)n[nH]2)C1` (relative stereo) [Example 159, cis-3-(3-((4-fluoro-1,1-dioxido-2,3-dihydrobenzo[d]isothiazol-5-yl)amino)-1H-pyrazol-5-yl)cyclopentyl tert-butylcarbamate], the results for the IC50 on CDK1/Cyclin B1 and against CDK2/Cyclin E1 were 30 nM and 1 nM, respectively.

On to `O=C(NC1CC2(CC2)C1)O[C@H]1CC[C@@H](c2cc(Nc3ccc4c(c3F)CNS4(=O)=O)n[nH]2)C1` (relative stereo) [Example 160, cis-3-(3-((4-fluoro-1,1-dioxido-2,3-dihydrobenzo[d]isothiazol-5-yl)amino)-1H-pyrazol-5-yl)cyclopentyl spiro[2.3]hexan-5-ylcarbamate], for which the 50% inhibitory concentration (IC50) at CDK1/Cyclin B1 stood at 579 nM; on CDK2/Cyclin E1, 105 nM.

For the compound `COCC(C)NC(=O)O[C@H]1CC[C@@H](c2cc(Nc3ccc4c(c3F)CNS4(=O)=O)n[nH]2)C1` (relative stereo) [Example 161, cis-3-(3-((4-fluoro-1,1-dioxido-2,3-dihydrobenzo[d]isothiazol-5-yl)amino)-1H-pyrazol-5-yl)cyclopentyl(1-methoxypropan-2-yl)carbamate], the half-inhibitory concentration (IC50) against CDK1/Cyclin B1 amounted to 332 nM; against CDK2/Cyclin E1, 6.5 nM.

As for `CC1(NC(=O)O[C@H]2CC[C@@H](c3cc(Nc4ccc5c(c4F)CNS5(=O)=O)n[nH]3)C2)CCC1` (relative stereo) [Example 163, cis-3-(3-((4-fluoro-1,1-dioxido-2,3-dihydrobenzo[d]isothiazol-5-yl)amino)-1H-pyrazol-5-yl)cyclopentyl(1-methylcyclobutyl)carbamate], the results for the IC50 on CDK1/Cyclin B1 and against CDK2/Cyclin E1 were 18 nM and 0.8 nM, respectively.

For `CC(CC(F)(F)F)NC(=O)O[C@H]1CC[C@@H](c2cc(Nc3ccc4c(c3F)CNS4(=O)=O)n[nH]2)C1` (relative stereo) [Example 165, cis-3-(3-((4-fluoro-1,1-dioxido-2,3-dihydrobenzo[d]isothiazol-5-yl)amino)-1H-pyrazol-5-yl)cyclopentyl(4,4,4-trifluorobutan-2-yl)carbamate], the values for the concentration for half-maximal inhibition (IC50) at CDK1/Cyclin B1 and against CDK2/Cyclin E1 were 49 nM and 1.3 nM, respectively.

Turning to `CN1Cc2c(ccc(Nc3cc([C@@H]4CC[C@H](OC(=O)NCC(C)(C)O)C4)[nH]n3)c2F)S1(=O)=O` (relative stereo) [Example 168, cis-3-(3-((4-fluoro-2-methyl-1,1-dioxido-2,3-dihydrobenzo[d]isothiazol-5-yl)amino)-1H-pyrazol-5-yl)cyclopentyl(2-hydroxy-2-methylpropyl)carbamate], the results for the IC50 on CDK1/Cyclin B1 and at CDK2/Cyclin E1 were 545 nM and 12 nM, respectively.

Consider `CN1Cc2c(ccc(Nc3cc([C@@H]4CC[C@H](OC(=O)N[C@H]5CC[C@@](C)(O)CC5)C4)[nH]n3)c2F)S1(=O)=O` (relative stereo) [Example 169, cis-3-(3-((4-fluoro-2-methyl-1,1-dioxido-2,3-dihydrobenzo[d]isothiazol-5-yl)amino)-1H-pyrazol-5-yl)cyclopentyl((1s,4s)-4-hydroxy-4-methylcyclohexyl)carbamate], for which the IC50 on CDK1/Cyclin B1 was 471 nM; against CDK2/Cyclin E1, 7.4 nM.

In the case of `C[C@H]1[C@H](O)CN1C(=O)O[C@H]1CC[C@@H](c2cc(Nc3ccc4c(c3F)CN(C)S4(=O)=O)n[nH]2)C1` (relative stereo) [Example 170, cis-3-(3-((4-fluoro-2-methyl-1,1-dioxido-2,3-dihydrobenzo[d]isothiazol-5-yl)amino)-1H-pyrazol-5-yl)cyclopentyl(2S,3R)-3-hydroxy-2-methylazetidine-1-carboxylate], the IC50 on CDK1/Cyclin B1 came out at 407 nM; on CDK2/Cyclin E1, 23 nM.

With `CC(C)NC(=O)O[C@H]1CC[C@@H](c2cc(Nc3ccc4c(c3)CC(=O)NS4(=O)=O)n[nH]2)C1` (relative stereo) [Example 171, cis-3-(3-((1,1-dioxido-3-oxo-3,4-dihydro-2H-benzo[e][1,2]thiazin-6-yl)amino)-1H-pyrazol-5-yl)cyclopentyl isopropylcarbamate], the IC50 is 183 nM at CDK1/Cyclin B1 and 10 nM at CDK2/Cyclin E1.
